# Measurements: US20060234910A1, “Methods for the treatment of insulin resistance and disease states characterized by insulin resistance” (priority 2005, published 2006)
# Experiments:
# MINOR gene expression = experiment: Quantitative real-time PCR of MINOR gene expression in 3T3-L1 adipocytes; assay type: cell-based; settings: for insulin-stimulated MINOR gene expression: 1 hour
# Procedure: (§1) FIGS. 3A-3C show the effect of insulin stimulation on MINOR and TR3 gene expression in 3T3-L1 adipocytes. FIGS. 3A and 3B show insulin induces the expression of MINOR and TR3 gene expression in 3T3-L1 adipocytes. Fully differentiated 3T3-L1 adipocytes were treated with 100 nM of insulin for up to 8 hours (treated) or 0 nM insulin (0 hour control). The control and treated adipocytes were lysed and the mRNAs were extracted for cDNA synthesis. Quantitative real-time PCR was used to measure expression of MINOR (FIG. 3A) and TR3 (FIG. 3B) genes. Results represent the mean±SE from three separate experiments. […] Fully differentiated 3T3-L1 adipocytes were treated with 100 nM of insulin alone (control) or plus LY294002 (PI 3-kinase inhibitor), SB203580 (p38 MAP kinase inhibitor), Ro318220 (protein kinase C inhibitor) for one hour. The control and treated adipocytes were lysed and the mRNAs were extracted for cDNAs synthesis. A quantitative real-time PCR was performed for detecting the expression levels of MINOR and TR3 genes. Results represent the mean±SE from three separate experiments.
# (§2) Fully differentiated 3T3-L1 adipocytes were treated with 10 uM of the indicated thiazolidinedione (troglitazone or pioglizatone) from 0 to 48 hours. Control cells received vehicle alone. The control and treated adipocytes were lysed and the mRNAs were extracted for cDNA synthesis. Quantitative real-time PCR was used to measure expression levels of MINOR (FIGS. 4A and 4B) and TR3 (FIGS. 4C and 4D) genes. Results represent the mean±SE from three separate experiments.
# (§3) Fully differentiated 3T3-L1 adipocytes were treated with 100 nM of insulin for various times (0 to 8 hours; the 0 hour time point served as the control and received no added insulin). The control and treated adipocytes were lysed and the mRNAs were extracted for cDNAs synthesis. A quantitative real-time PCR was performed for detecting the expression levels of MINOR and TR3 genes. […] Insulin also stimulated TR3 gene expression adipocytes, but with a different temporal response with TR3 expression levels returning to baseline by hour 2 after treatment (FIG. 3B).
# (§4) The stimulatory effect of insulin on MINOR and TR3 gene expression was dependent on signal transduction via the PI-3-kinase pathway, the p38 MAP-K pathway and the protein kinase C (PKC) pathway. […] A quantitative real-time PCR was performed for detecting the expression levels of MINOR and TR3 genes. […]
# (§5) Fully differentiated 3T3-L1 adipocytes were treated with 10 uM of the indicated thiazolidinedione (troglitazone or pioglizatone) from 0 to 48 hours. […] Quantitative real-time PCR was used to measure expression levels of MINOR (FIGS. 4A and 4B) and TR3 (FIGS. 4C and 4D) genes. […]
# TR3 gene expression = experiment: Quantitative real-time PCR of TR3 gene expression in 3T3-L1 adipocytes; assay type: cell-based; settings: for insulin-stimulated TR3 gene expression: 1 hour
# Procedure: as §1, §2, §3, §4, §5
# Nurr1 gene expression = Nurr1 gene expression in 3T3-L1 adipocytes; assay type: cell-based; settings: fully differentiated 3T3-L1 adipocytes, 100 nM insulin; data not shown
# [1] = test system: TR3 gene expression in skeletal muscle; experiment: cDNA microarray of skeletal muscle biopsies, basal vs hyperinsulinemia (TR3); assay type: in vivo, human; settings: insulin stimulation, three hours of hyperinsulinemia vs basal
# Source text: (§6) The primary target tissues for insulin action are skeletal muscle, adipose tissue, and the liver tissue. Skeletal muscle is the predominant target tissue for insulin-mediated glucose uptake (responsible for approximately 95% of glucose uptake), and is a critical locus of insulin resistance. Defects in glucose uptake in skeletal muscle is a predominate contributor to the clinical manifestations of insulin resistance. The molecular basis for insulin resistance is not well understood, but appears to involve defects in insulin signal transduction and abnormal cellular trafficking of glucose transporter proteins (5). To better understand the molecular defects responsible for human insulin resistance, skeletal muscle biopsies were obtained from volunteers in three metabolically-defined subgroups: A) insulin sensitive: (B) insulin resistant; and (C) type 2 diabetic. Biopsies from each subgroup were obtained under both basal conditions and after three hours of hyperinsulinemia. Differential gene expression in these muscle biopsies was assessed using cDNA microarray technology utilizing the Affymetrix Hu95A gene expression chips (carried out as per manufacturer's instructions). The effect of insulin on gene expression in human muscle has not been extensively studied, and most prior studies focused on single genes or small numbers of genes with a limited focus (6-8). […]
# [2] = test system: GLUT4 glucose transporters at plasma membrane; experiment: Plasma membrane lawn assay of GLUT4 in adipocytes; assay type: cell-based; settings: control (LacZ transfected) adipocytes, 100 nM insulin, 30 min vs basal
# Procedure: FIGS. 6A-6D show the effect of MINOR gene expression on insulin-mediated recruitment of GLUT4 glucose transporters to plasma membrane. MINOR gene transduced 3T3-L1 fibroblasts and control LacZ transduced fibroblasts were grown on glass cover slips and differentiated into adipocytes. Adipocytes were then stimulated for 30 min with (insulin-stimulated) or without (basal) 100 nM of insulin. The adipocytes were then washed, and disrupted by sonication leaving and plasma membrane sheets attached to cover slips (plasma membrane lawn assay) (26). Plasma membrane associated GLUT4 was detected using a polyclonal anti-GLUT4 antibody and a FITC-conjugated secondary antibody. (A) basal LacZ expressing adipocytes; (B) insulin-stimulated LacZ expressing adipocytes; (C) basal Minor expressing adipocytes; (D) insulin-stimulated Minor expressing adipocytes.
# These experiments use the “plasma membrane lawn” technique (26) to quantify the relative amounts of GLUT4 glucose transporter proteins in the cell surface plasma membrane. MINOR gene transduced 3T3-L1 fibroblasts and control LacZ transduced fibroblasts were grown on glass cover slips and differentiated into adipocytes. […] Plasma membrane associated GLUT4 was detected using a polyclonal anti-GLUT4 antibody and a FITC-conjugated secondary antibody.
# [3] = test system: MINOR gene expression in skeletal muscle; experiment: cDNA microarray of skeletal muscle biopsies, basal vs hyperinsulinemia (MINOR); assay type: in vivo, human; settings: insulin stimulation, three hours of hyperinsulinemia vs basal
# Source text: as §6
# [4] = 3T3-L1 adipocytes, 100 nM insulin
# [5] = fully differentiated 3T3-L1 adipocytes, 100 nM insulin, 0 to 8 hours
# [6] = 3T3-L1 adipocytes, 100 nM insulin plus inhibitor 50 nM
# [7] = 3T3-L1 adipocytes, 100 nM insulin plus inhibitor 10 nM
compound,measurement,setting,value
insulin,period over which the increase in MINOR gene expression is sustained,MINOR gene expression; [4],4 h
same,MINOR gene expression,MINOR gene expression; [5],stimulated
same,time at which TR3 expression levels return to baseline after treatment,TR3 gene expression; [4],≤ 2 h
same,TR3 gene expression,TR3 gene expression; [5],stimulated
same,Nurr1 gene expression,Nurr1 gene expression,not stimulated
same,TR3 gene expression in human skeletal muscles (microarray),[1],strongly induced
same,plasma membrane associated GLUT4,[2],increased GLUT4 staining in the plasma membrane
same,MINOR gene expression in human skeletal muscles (microarray),[3],strongly induced
"Cn1cc(C2=C(c3cn(CCCSC(=N)N)c4ccccc34)C(=O)NC2=O)c2ccccc21 [Ro318220, reference compound]",insulin-stimulated MINOR gene expression,MINOR gene expression; [6],decreased the ability of insulin to stimulate
same,insulin-stimulated TR3 gene expression,TR3 gene expression; [6],decreased the ability of insulin to stimulate
"C[S+]([O-])c1ccc(-c2nc(-c3ccncc3)c(-c3ccc(F)cc3)[nH]2)cc1 (stereo not drawn) [SB203580, reference compound]",insulin-stimulated MINOR gene expression,MINOR gene expression; [7],decreased the ability of insulin to stimulate
same,insulin-stimulated TR3 gene expression,TR3 gene expression; [7],decreased the ability of insulin to stimulate
